Laboratory results: publication PMC6274786 (International Journal of Molecular Sciences, 2018)
Like-named read-outs stand apart in the source and are kept apart here.

Key:
[1] = test system: PTZ-induced seizure; assay: Pentylenetetrazole (PTZ)-induced seizure; assay type: in vivo, Wistar rats; settings: for PTZ-Induced Seizure (protection class): PTZ 60 mg/kg; for protective effect in PTZ-induced seizure (in words): observed over 30 min, vs saline-treated group
Method: (§1) In this study and according to previously used protocols, two chemical agents have been used to induce seizures, namely pentylenetetrazole (PTZ, 60 mg/kg, i.p.) and strychnine (STR, 3.5 mg/kg, i.p.). PTZ 60 mg/kg or STR 3.5 mg/kg were administered i.p. to all groups of seven rats (n = 7), that is, animals pretreated with vehicle or test compounds 1–16. Vehicle, VPA (300 mg/kg, i.p.), [26, 47, 48, 49] or test compounds 1–16 (10 mg/kg, i.p.) were systemically administered 30–45 min before PTZ (60 mg/kg, i.p.) or STR (3.5 mg/kg, i.p.) injection, and animals were directly observed for any signs of convulsion for a duration of 30 min. The observed scores as well as percent protection against generalized tonic-clonic seizure (GTCS) were graded and scaled according to the Racine scale (stage 0, no change in behavior; stage 1, stereotype mouthing, eye blinking, and/or mild facial clonus; stage 2, head nodding and/or severe facial clonus; stage 3, myoclonic jerk in forelimbs; stage 4, clonic convulsions in the forelimbs with rearing; stage 5, generalized colonic convulsions associated with loss of balance) to evaluate the protection provided by the respective test compound against seizures. The animals were divided into eighteen groups of seven rats (n = 7) and treated as follows.
(§2) (1) Control group injected with vehicle + PTZ (SAL group), (2) positive control group in which rats were injected with VPA (300 mg/kg) + PTZ (VPA group), and animals in the test groups (3)–(18) were systemically administered with test compounds 1–16 (10 mg/kg), respectively. An additional PTZ experiment was conducted using three different groups of seven rats (n = 7), the H3R ligand with the most promising protection in PTZ model was administered at doses of 2.5, 5, or 15 mg/kg, i.p. 30–45 min before the PTZ challenge. […] The same experimental procedure was followed in the STR-induced seizure model applying the reference drug VPA, which was used at a dose of 300 mg/kg, i.p. (Figure 3, Table 2).

[2] = test system: MES-induced seizure; assay: Maximal electroshock (MES)-induced seizure; assay type: in vivo, Wistar rats; settings: 10 mg/kg i.p.; for MES-Induced Seizure (protection class): 50 Hz, 120 mA, 1 s
Excerpt: As previously described, the seizures were induced in rats with a 50 Hz alternating current of 120 mA intensity. The current was applied through ear electrodes for 1 s. Protection against the spread of MES-induced seizure was defined as the abolition of the tonic hind limb extension (THLE) component of the seizure. For the first screening of protective effects of test compounds 1–16 in the MES-induced seizure model, the animals were divided into eighteen groups of seven rats (n = 7) as follows; group (1) control group injected with vehicle (SAL), group (2) positive control group in which rats were injected with PHT at a dose of 10 mg/kg (this being the minimal dose of PHT that protected animals against the spread of MES-induced seizures without mortality), and groups (3)–(18) animals in the experimental groups were administered H3R antagonists 1–16 at a dose of 10 mg/kg. In another MES experiment in three separate groups of six rats (n = 6), H3R antagonist 4 with the most promising protection in MES model was administered at doses of 2.5, 5, or 15 mg/kg, i.p. 30–45 min before the MES challenge.

[3] = test system: STR-induced seizure; assay: Strychnine (STR)-induced seizure; assay type: in vivo, Wistar rats; settings: for STR-Induced Seizure (protection class): STR 3.5 mg/kg
Method: as §1, §2

[4] = biological target: T1, human histamine H3R (Homo sapiens, UniProt Q9Y5N1); assay: [3H]Nα-methylhistamine radioligand displacement assay, HEK-293 cell membranes; assay type: binding
T1 construct: expressed in transfected cells
Method: As described previously, the affinity for the human histamine H3R was tested utilizing radioligand displacement assays with [^3H]N^α-methylhistamine at membrane preparations from human embryonic kidney (HEK)-293 cells, stably expressing the receptor. […] The analysis of data was conducted by the software GraphPad Prism 7 (San Diego, CA, USA), using the “one-site competition” equation. Ki values were calculated from the 50 percent of inhibitory concentration (IC50) values according to the Cheng-Prusoff equation [44]

[5] = biological target: T2, human H1 receptor (Homo sapiens, UniProt P35367); assay: Radioligand binding, membranes from CHO-K1 cells
T2 construct: purchased PerkinElmer; host or cells: CHO-K1 cells, stably transfected (membranes)
Method: Radioligand binding was performed as previously described using membranes from CHO-K1 cells stably transfected with the human H1 receptor (PerkinElmer., Waltham, MA, USA). Data were fitted to a one-site curve-fitting equation with Prism 6 (GraphPad Software, city, state, country) and Ki values were estimated from the Cheng–Prusoff equation [44].

[6] = mean with 95% confidence interval, read-out: In Vitro Affinity Ki (hH3R) in nM [CI]

T1 sequence (Q9Y5N1 whole entry): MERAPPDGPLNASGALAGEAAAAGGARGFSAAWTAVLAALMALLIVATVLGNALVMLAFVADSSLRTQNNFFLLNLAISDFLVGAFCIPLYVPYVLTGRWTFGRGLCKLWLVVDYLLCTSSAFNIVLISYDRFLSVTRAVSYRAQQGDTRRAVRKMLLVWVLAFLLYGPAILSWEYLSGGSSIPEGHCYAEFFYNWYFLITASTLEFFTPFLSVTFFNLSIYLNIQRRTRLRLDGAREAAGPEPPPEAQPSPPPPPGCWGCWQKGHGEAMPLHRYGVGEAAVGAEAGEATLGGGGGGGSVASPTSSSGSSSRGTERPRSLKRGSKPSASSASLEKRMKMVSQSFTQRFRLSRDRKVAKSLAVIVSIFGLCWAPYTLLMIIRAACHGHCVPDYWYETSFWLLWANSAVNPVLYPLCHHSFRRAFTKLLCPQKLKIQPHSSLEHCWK
T2 sequence (P35367 whole entry): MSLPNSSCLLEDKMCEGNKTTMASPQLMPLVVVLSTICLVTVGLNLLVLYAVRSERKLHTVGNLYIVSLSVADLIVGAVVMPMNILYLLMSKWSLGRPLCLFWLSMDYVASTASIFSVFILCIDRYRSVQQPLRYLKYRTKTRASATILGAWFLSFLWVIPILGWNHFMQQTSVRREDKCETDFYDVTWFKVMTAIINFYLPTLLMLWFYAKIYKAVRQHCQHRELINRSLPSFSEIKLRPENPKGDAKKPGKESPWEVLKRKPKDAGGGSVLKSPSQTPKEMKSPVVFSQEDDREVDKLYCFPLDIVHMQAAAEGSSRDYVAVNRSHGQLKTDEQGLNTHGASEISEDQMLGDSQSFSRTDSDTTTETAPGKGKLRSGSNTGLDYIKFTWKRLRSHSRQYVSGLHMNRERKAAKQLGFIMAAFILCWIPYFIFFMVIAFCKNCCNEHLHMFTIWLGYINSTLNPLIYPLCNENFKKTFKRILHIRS

SMILES	PTZ-Induced Seizure (protection class) ([1]; 10 mg/kg i.p.)	MES-Induced Seizure (protection class) [2]	STR-Induced Seizure (protection class) ([3]; 10 mg/kg i.p.)	Ki [4] [nM]	also measured
O=C(O)C(=O)O.O=C(c1ccccc1)c1cccc(OCCCCCCN2CCCCCC2)c1 [Ligand 10, (3-(6-(azepan-1-yl)hexyloxy)phenyl)(phenyl)methanone hydrogen oxalate]	−	−	−	69.5	
C[C@@H](N)Cc1c[nH]cn1 [RAMH, (R)-α-methylhistamine, reference compound]					PTZ-Induced Seizure % Protection against GTCS ([1]; 10 mg/kg i.p.): 14.29%; PTZ-Induced Seizure Average Seizure Score ([1]; 10 mg/kg i.p.): 4.29 ± 0.25; protective effect in PTZ-induced seizure (in words) ([1]; 10 mg/kg i.p.): did not affect seizure score; MES-Induced Seizure Average THLE [2]: 7.92 ± 0.60 s; protective effect in MES-induced seizure (in words) ([2]; vs saline-treated group): did not affect MES-induced seizures; STR-Induced Seizure % Protection against GTCS ([3]; 10 mg/kg i.p.): 28.57%; STR-Induced Seizure Average Seizure Score ([3]; 10 mg/kg i.p.): 4.71 ± 0.16
Fc1ccc(OCCCCCCN2CCCCC2)cc1.O=C(O)C(=O)O [Ligand 11, 1-(6-(4-fluorophenoxy)hexyl)piperidine hydrogen oxalate]	++ (high protective effect (THLE duration <1, seizure score 0))	−	−		protective effect in PTZ-induced seizure (in words) ([1]; 10 mg/kg i.p.): full protective activities; protective effect in STR-induced seizure (in words) ([3]; 10 mg/kg i.p., 30 min observation, vs saline-treated group): failed to exhibit appreciable protection; Ki [4, 6]: 115 nM
O=C(O)C(=O)O.O=C(c1ccccc1)c1ccc(OCCCCCN2CCCCC2)cc1 [Ligand 14, phenyl(4-(5-(piperidin-1-yl)pentyloxy)phenyl)methanone hydrogen oxalate]	+ (moderate protective effect (tonic hind limb extension (THLE) duration in the range of 2–5 s, seizure score in the range of 2–4))	+ (moderate protective effect (tonic hind limb extension (THLE) duration in the range of 2–5 s, seizure score in the range of 2–4))	−	36.2	
CC1CCCN(CCCCCCOc2cccc(C(=O)c3ccccc3)c2)C1.O=C(O)C(=O)O (stereo not shown) [Ligand 9, (3-(6-(3-methylpiperidin-1-yl)hexyloxy)phenyl)(phenyl)methanone hydrogen oxalate]	−	−	−	110	Ki [5]: 915 to 1340 nM
O=C(O)C(=O)O.O=C(c1ccccc1)c1ccc(OCCCCCCN2CCCCC2)cc1 [Ligand 5, phenyl(4-(6-(piperidin-1-yl)hexyloxy)phenyl)methanone hydrogen oxalate]	−	++ (high protective effect (THLE duration <1, seizure score 0))	−	41.1	
CC1CCCN(CCCCCOc2ccc3ccccc3c2)C1.O=C(O)C(=O)O (stereo not shown) [Ligand 1, 3-methyl-1-(5-(naphthalen-2-yloxy)pentyl)piperidine hydrogen oxalate]	−	−	−		
O=C(O)C(=O)O.O=C(c1ccccc1)c1ccc(OCCCCCN2CCCCCC2)cc1 [Ligand 16, (4-(5-(azepan-1-yl)pentyloxy)phenyl)(phenyl)methanone hydrogen oxalate]	−	−	−	38.5	
CC1CCCN(CCCCCCOc2ccc(F)cc2)C1.O=C(O)C(=O)O (stereo not shown) [Ligand 12, 1-(6-(4-fluorophenoxy)hexyl)-3-methylpiperidine hydrogen oxalate]	+ (moderate protective effect (tonic hind limb extension (THLE) duration in the range of 2–5 s, seizure score in the range of 2–4))	−	−		Ki [4, 6]: 83.6 nM
O=C(O)C(=O)O.O=C(c1ccccc1)c1cccc(OCCCCCCN2CCCCC2)c1 [Ligand 8, phenyl(3-(6-(piperidin-1-yl)hexyloxy)phenyl)methanone hydrogen oxalate]	−	+ (moderate protective effect (tonic hind limb extension (THLE) duration in the range of 2–5 s, seizure score in the range of 2–4))	−	76.1	
CC1CCCN(CCCCCCOc2ccc3ccccc3c2)C1.O=C(O)C(=O)O (stereo not shown) [Ligand 3, 3-methyl-1-(6-(naphthalen-2-yloxy)hexyl)piperidine hydrogen oxalate]	−	++ (high protective effect (THLE duration <1, seizure score 0))	−		
CCCC(CCC)C(=O)O [VPA, valproic acid, reference compound]					PTZ-Induced Seizure % Protection against GTCS ([1]; 300 mg/kg i.p.): 100%; PTZ-Induced Seizure Average Seizure Score ([1]; 300 mg/kg i.p.): 0.00 ± 0.00; STR-Induced Seizure % Protection against GTCS ([3]; 300 mg/kg i.p.): 100%; STR-Induced Seizure Average Seizure Score ([3]; 300 mg/kg i.p.): 0
O=C(O)C(=O)O.c1ccc2cc(OCCCCCN3CCCCCC3)ccc2c1 [Ligand 2, 1-(5-(naphthalen-2-yloxy)pentyl)azepane hydrogen oxalate]	−	−	−		
O=C1NC(=O)C(c2ccccc2)(c2ccccc2)N1 [PHT, phenytoin, reference compound]					MES-Induced Seizure Average THLE [2]: 0.90 ± 0.19 s
CC1CCCN(CCCCCOc2ccc(C(=O)c3ccccc3)cc2)C1.O=C(O)C(=O)O (stereo not shown) [Ligand 15, (4-(5-(3-methylpiperidin-1-yl)pentyloxy)phenyl)(phenyl)methanone hydrogen oxalate]	+ (moderate protective effect (tonic hind limb extension (THLE) duration in the range of 2–5 s, seizure score in the range of 2–4))	−	−	40.2	Ki [5]: 915 to 1340 nM
